Measured values from US7553642B2, “Branched neutral amino acid transporters acting as single molecule” (Human Cell Systems, Inc., priority 2003, dated 2009).

What was measured:
Format in all cases: cell-based
human LAT3 [1] = biological target: T1, human LAT3 (Homo sapiens, UniProt O75387); experiment: Uptake of radiolabeled amino acids by Xenopus oocytes injected with human LAT3 cRNA
T1 construct: An expression plasmid vector pSPORT1 containing cDNA of human LAT3 was cleaved by a restriction enzyme NotI, and cRNA; expressed in transfected cells; host or cells: Xenopus laevis oocytes injected with cRNA
T1 sequence (O75387 1-559): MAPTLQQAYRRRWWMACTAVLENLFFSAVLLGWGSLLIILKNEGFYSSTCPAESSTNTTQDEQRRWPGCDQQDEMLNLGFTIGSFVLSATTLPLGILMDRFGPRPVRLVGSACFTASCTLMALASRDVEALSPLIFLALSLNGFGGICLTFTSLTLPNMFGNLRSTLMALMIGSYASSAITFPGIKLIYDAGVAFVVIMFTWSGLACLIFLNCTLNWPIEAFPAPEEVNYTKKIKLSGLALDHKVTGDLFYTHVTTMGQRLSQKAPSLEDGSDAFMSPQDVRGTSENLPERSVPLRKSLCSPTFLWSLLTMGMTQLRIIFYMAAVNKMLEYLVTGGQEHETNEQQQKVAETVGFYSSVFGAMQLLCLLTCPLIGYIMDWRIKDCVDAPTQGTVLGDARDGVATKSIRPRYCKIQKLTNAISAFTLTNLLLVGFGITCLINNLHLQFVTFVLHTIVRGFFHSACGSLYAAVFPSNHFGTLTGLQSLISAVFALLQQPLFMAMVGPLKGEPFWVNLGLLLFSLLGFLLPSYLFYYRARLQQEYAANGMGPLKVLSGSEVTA
Experimental: The substrate uptake by the injected oocytes using leucine as a substrate was carried out according to the method described by Kanai et al. (Kanai and Hediger, Nature, Vol. 360, 467-471 (1992)), as follows. The oocytes was cultured for 30 minutes in the Na^+-free uptake solution (100 mM of choline chloride, 2 mM of potassium chloride, 1.8 mM of calcium chloride, 1 mM of magnesium chloride, 5 mM of HEPES, pH 7.4) using ^14C-leucine (100 μM) as a substrate, and uptake rate of the substrate was measured by counting radioactivity in the cell.
The oocytes was injected with 25 ng of human LAT3 gene cRNA to be expressed thereby, and cultured for 3 days.
The experiment of the leucine uptake was carried out as follows according to the above described method in Example 1 (1). That is, the oocytes injected with the cRNA of the human LAT3 gene or water as a control were cultured for 10 minutes in Na^+-free uptake solution containing ^14C-leucine (100 μM) (refer to Example 1 (1)), and measured uptake of radioactivity into the cells.
The leucine uptake was conducted at the leucin concentrations of 1, 3, 10, 30, 60, 100, 200, 400, 1000, 2000 and 3000 μM using the oocytes injected with cRNA of the human LAT3 gene according to the above-described method in Example 3 (1). […] In addition, it was clarified that the leucine transport mediated by LAT3 is composed of high affinity component and low affinity component (FIG. 6, inserted figure).
An uptake experiment of various amino acids and amino acid analogs was carried out using the oocytes injected with cRNA of the human LAT3 gene according to the above-described method in Example 3 (1), provided that various radiolabeled amino acids were utilized in place of the ^14C-leucine.

human LAT3 [2] = biological target: T1, human LAT3; experiment: 14C-leucine efflux from preloaded oocytes injected with human LAT3 cRNA; settings: preloaded 100 nl of 400 μM 14C-leucine; absence of extracellular leucine; Na+-free; room temperature
Experimental: The oocytes injected with cRNA of the human LAT3 gene was injected with 100 nl of 400 μM ^14C-leucine (2 nCi). After washing the oocytes with the leucine-free and Na^+-free uptake solution which was previously cooled with ice, the oocytes were transferred to the Na^+-free uptake solution with or without leucine (1 mM) at room temperature (18 to 22° C.), then efflux of ^14C-leucine was measured. As a control, 100 nl of 400 μM ^14C-leucine (2 nCi) was injected into the oocytes injected with water instead of cRNA of the human LAT3 gene, and the extracellular efflux of ^14C-leucine was measured by the same procedures as described above.

mouse LAT3 = biological target: T2, mouse LAT3 (Mus musculus, UniProt Q8BSM7); experiment: Leucine uptake by oocytes injected with mouse LAT3 cRNA; settings: 14C-L-leucine, method of Example 3 (1)
T2 construct: expressed in transfected cells; host or cells: Xenopus laevis oocytes injected with cRNA (IMAGE clone 4910149)
Experimental: The cDNA of mouse LAT3 obtained by Example 2 was cleaved at NotI site, and cRNA was prepared using SP6 RNA polymerase. The cRNA of the mouse LAT3 gene was expressed in the oocytes and the ^14C-L-leucine uptake was measured.
The oocytes was injected with 25 ng of cRNA of the mouse LAT3 gene to be expressed thereby, and cultured for 3 days. An experiment of the leucine uptake by the oocytes injected with cRNA of the mouse LAT3 gene was carried out according to the method in Example 3 (1).

mouse LAT4 = biological target: T3, mouse LAT4 (Mus musculus, UniProt Q8CGA3, K402E/P237S); experiment: Uptake of radiolabeled amino acids by Xenopus oocytes injected with mouse LAT4 cRNA
T3 construct: An expression plasmid vector pcDNA 3.1(+) containing cDNA of mouse LAT4 was cleaved by a restriction enzyme XbaI; expressed in transfected cells; host or cells: Xenopus laevis oocytes injected with cRNA (from pcDNA3.1(+), IMAGE clone 2235970)
Experimental: The oocytes was injected with 25 ng of cRNA of the mouse LAT4 gene to be expressed thereby, and cultured for 3 days.
An experiment of leucine uptake was carried out as follows according to the above-described method in Example 3 (1). That is, the oocytes injected with cRNA of the mouse LAT4 gene or water as a control were cultured for 10 minutes in the Na^+-free uptake solution containing […] (100 μM) (refer to Example 3 (1)), and measured the uptake of radioactivity into the cells.
The leucine uptake was conducted at the leucin concentrations of 0.01, 0.03, 0.1, 0.3, 1, 3 and 10 mM, using the oocytes injected with cRNA of the mouse LAT4 gene according to the above-described method in Example 3 (1). […] In addition, it was clarified that the leucine transport mediated by LAT4 is composed of a high affinity component and a low affinity component, just like the leucin uptake mediated by LAT3.
An uptake experiment of various amino acids and amino acid analogs was carried out using the oocytes injected with cRNA of the mouse LAT4 gene according to the above-described method in Example 3 (1). In this regard, in place of ^14C-leucine, various radiolabeled amino acids were utilized.

human LAT4 = biological target: T4, human LAT4 (Homo sapiens, UniProt Q8N370); experiment: Leucine uptake by oocytes injected with human LAT4 cRNA; settings: 14C-L-leucine, method of Example 3 (1)
T4 construct: expressed in transfected cells; host or cells: Xenopus laevis oocytes injected with cRNA (IMAGE clone 2783525)
Experimental: The cDNA of human LAT4 gene obtained by Example 4 was cleaved at XhoI site, and the cRNA was prepared using T3 RNA polymerase. The cRNA of the human LAT4 gene was expressed in the oocytes and the ^14C-L-leucine uptake was measured.
The oocytes was injected with 25 ng of cRNA of the human LAT4 gene, and cultured for […]. Experiment of the leucine uptake by the oocytes injected with cRNA of the human LAT4 gene was carried out according to the method of Example 3 (1).

[3] = 14C-leucine 100 μM, Na+-free uptake solution, 10 minutes

T3 sequence (Q8CGA3 whole entry P237S/K402E): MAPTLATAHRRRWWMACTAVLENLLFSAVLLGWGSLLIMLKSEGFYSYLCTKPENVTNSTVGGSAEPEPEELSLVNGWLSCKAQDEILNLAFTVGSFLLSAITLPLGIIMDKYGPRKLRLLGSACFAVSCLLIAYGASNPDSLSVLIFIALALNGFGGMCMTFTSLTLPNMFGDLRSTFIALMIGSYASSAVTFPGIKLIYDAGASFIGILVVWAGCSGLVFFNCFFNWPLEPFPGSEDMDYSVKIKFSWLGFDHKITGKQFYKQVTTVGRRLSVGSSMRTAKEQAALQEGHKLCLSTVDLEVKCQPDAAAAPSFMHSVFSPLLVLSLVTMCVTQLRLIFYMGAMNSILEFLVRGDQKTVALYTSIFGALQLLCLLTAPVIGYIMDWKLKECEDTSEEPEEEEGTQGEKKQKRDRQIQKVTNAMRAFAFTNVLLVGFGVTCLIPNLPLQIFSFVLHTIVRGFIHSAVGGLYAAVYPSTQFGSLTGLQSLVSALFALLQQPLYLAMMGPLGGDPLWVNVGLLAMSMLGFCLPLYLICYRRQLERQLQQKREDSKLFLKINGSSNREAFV
T2 sequence (Q8BSM7 whole entry): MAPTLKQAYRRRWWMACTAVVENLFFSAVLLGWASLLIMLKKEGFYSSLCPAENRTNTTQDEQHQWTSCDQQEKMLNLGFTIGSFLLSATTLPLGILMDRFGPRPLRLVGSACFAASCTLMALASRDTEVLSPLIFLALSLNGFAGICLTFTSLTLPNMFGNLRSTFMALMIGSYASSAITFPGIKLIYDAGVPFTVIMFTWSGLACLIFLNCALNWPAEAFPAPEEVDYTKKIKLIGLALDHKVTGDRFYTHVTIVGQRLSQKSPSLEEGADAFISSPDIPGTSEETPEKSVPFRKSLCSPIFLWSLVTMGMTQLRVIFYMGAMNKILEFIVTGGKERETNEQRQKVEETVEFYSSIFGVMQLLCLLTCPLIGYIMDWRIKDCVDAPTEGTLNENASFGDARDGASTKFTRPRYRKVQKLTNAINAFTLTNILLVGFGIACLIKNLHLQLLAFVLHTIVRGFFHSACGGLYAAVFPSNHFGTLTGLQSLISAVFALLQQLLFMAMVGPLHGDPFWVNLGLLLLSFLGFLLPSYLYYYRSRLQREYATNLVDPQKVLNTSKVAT
T4 sequence (Q8N370 1-573 isoform Q8N370-3): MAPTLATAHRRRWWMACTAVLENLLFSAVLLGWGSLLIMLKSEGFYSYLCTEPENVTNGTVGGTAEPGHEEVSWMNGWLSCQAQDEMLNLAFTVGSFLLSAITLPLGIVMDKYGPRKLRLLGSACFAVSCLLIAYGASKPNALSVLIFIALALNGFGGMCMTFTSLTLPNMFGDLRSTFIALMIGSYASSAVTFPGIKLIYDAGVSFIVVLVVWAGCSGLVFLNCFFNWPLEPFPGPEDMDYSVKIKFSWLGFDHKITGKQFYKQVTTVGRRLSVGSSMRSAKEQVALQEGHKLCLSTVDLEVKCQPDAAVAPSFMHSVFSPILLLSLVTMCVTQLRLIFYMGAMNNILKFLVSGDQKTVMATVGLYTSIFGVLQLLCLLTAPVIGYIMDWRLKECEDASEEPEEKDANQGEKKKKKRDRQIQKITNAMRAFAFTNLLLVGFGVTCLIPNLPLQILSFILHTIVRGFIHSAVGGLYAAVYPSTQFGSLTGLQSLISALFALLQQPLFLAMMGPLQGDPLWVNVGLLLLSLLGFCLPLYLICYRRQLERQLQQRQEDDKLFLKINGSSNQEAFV

CC(C)C[C@H](N)C(=O)O [L-leucine]
uptake of radiolabeled substrate into oocytes expressing human LAT3 (human LAT3 [1]; 14C-labeled substrate in place of 14C-leucine, Na+-free uptake solution, 10 minutes): a large amount of uptake
leucine uptake in oocytes expressing LAT3 compared with water-injected (human LAT3 [1]; [3]): significant augmentation
concentration dependence of leucine uptake (human LAT3) (human LAT3 [1]; leucine 1 to 3000 μM): concentration-dependent and saturable
efflux of 14C-leucine from oocytes expressing human LAT3 (human LAT3 [2]): significant efflux
leucine uptake in oocytes expressing mouse LAT3 compared with water-injected (mouse LAT3): significant augmentation
uptake of radiolabeled substrate into oocytes expressing mouse LAT4 (mouse LAT4; 14C-labeled substrate in place of 14C-leucine): a large amount of uptake
leucine uptake in oocytes expressing mouse LAT4 compared with water-injected (mouse LAT4; [3]): significant augmentation
concentration dependence of leucine uptake (mouse LAT4) (mouse LAT4; leucine 0.01 to 10 mM): concentration-dependent and saturable
leucine uptake in oocytes expressing human LAT4 compared with water-injected (human LAT4): significant augmentation
